Values joined by “and” are separate entries in the source; they are usually repeats but may differ in a detail not shown here. Equal entries are not always repeated.
Experiments:
Experiment in all cases: radiometric filter-binding kinase assay, Kinase HotSpot
Conditions in all cases: compound 0.5 µM; ATP 10 µM
SRPK1 (human) = SRPK1 (human) (UniProt Q96SB4)
LTK (human) = LTK (human) (UniProt P29376)
PAK7 (human) = PAK7 (human) (UniProt Q9P286)
CAMK1G (human) = CAMK1G (human) (UniProt Q96NX5)
MAP2K2 (human) = MAP2K2 (human) (UniProt P36507)
NTRK1 (human) = NTRK1 (human) (UniProt P04629)
MAPK8 (human) = MAPK8 (human) (UniProt P45983)
TSSK1B (human) = TSSK1B (human) (UniProt Q9BXA7)
GSK3A (human) = GSK3A (human) (UniProt P49840)
STK33 (human) = STK33 (human) (UniProt Q9BYT3)
MAPKAPK3 (human) = MAPKAPK3 (human) (UniProt Q16644)
JAK3 JH1 JH2 (human) = JAK3 JH1 JH2 (human) (UniProt P52333)
[1] = biological target: TYK2 JH1 catalytic (human) (UniProt P29597)
NEK4 (human) = NEK4 (human) (UniProt P51957)
SLK (human) = SLK (human) (UniProt Q9H2G2)
Chain of SLK (human) (Q9H2G2 whole entry, looked up): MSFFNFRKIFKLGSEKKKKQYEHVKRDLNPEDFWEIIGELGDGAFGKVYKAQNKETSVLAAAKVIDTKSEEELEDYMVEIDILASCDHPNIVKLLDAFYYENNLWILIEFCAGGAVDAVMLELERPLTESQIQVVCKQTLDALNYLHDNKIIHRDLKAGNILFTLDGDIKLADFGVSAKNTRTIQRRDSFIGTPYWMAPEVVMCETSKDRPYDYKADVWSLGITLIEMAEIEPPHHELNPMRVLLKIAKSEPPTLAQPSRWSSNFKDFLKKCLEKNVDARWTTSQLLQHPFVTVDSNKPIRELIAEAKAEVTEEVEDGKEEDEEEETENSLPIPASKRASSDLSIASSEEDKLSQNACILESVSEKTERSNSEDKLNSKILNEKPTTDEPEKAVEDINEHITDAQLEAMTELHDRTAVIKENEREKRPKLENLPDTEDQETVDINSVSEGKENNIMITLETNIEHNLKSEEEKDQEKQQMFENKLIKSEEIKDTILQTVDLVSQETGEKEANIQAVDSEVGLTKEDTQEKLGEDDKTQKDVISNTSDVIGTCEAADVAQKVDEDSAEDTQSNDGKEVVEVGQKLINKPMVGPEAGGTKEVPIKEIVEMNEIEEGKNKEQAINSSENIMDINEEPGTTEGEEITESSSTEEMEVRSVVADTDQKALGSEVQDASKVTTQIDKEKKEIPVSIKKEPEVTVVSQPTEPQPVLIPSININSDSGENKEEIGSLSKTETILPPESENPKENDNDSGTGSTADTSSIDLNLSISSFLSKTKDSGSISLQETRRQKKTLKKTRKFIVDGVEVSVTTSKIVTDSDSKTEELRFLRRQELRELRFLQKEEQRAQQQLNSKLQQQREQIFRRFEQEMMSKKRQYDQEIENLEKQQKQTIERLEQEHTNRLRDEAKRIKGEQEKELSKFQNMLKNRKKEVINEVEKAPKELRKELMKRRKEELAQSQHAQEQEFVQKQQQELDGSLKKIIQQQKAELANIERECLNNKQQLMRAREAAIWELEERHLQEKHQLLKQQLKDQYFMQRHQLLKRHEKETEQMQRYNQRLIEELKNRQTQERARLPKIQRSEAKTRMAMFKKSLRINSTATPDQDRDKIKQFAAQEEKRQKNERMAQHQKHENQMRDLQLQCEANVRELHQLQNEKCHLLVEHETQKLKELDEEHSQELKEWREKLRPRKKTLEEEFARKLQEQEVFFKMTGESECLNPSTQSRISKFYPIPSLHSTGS

GSK3B (human) = GSK3B (human) (UniProt P49841)
Chain of GSK3B (human) (P49841 whole entry, looked up): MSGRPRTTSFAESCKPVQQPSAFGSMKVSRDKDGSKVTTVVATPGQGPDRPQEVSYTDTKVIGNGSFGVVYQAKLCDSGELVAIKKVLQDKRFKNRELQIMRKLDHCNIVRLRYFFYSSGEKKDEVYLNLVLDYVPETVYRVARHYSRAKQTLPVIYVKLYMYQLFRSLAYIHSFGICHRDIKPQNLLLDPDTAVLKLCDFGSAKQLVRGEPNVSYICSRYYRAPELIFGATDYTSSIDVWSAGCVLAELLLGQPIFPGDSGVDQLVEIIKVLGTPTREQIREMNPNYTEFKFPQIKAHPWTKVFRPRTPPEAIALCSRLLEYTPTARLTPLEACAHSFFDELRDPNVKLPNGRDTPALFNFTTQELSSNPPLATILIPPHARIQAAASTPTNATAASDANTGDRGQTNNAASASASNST

NUAK2 (human) = NUAK2 (human) (UniProt Q9H093)
PTK2 (human) = PTK2 (human) (UniProt Q05397)
PRKACA (human) = PRKACA (human) (UniProt P17612)
PRKCB2 (human) = PRKCB2 (human) (UniProt P05771)
NTRK3 (human) = NTRK3 (human) (UniProt Q16288)
PLK3 (human) = PLK3 (human) (UniProt Q9H4B4)
CAMK4 (human) = CAMK4 (human) (UniProt Q16566)
PRKG1 (human) = PRKG1 (human) (UniProt Q13976)
Chain of PRKG1 (human) (Q13976 whole entry, looked up): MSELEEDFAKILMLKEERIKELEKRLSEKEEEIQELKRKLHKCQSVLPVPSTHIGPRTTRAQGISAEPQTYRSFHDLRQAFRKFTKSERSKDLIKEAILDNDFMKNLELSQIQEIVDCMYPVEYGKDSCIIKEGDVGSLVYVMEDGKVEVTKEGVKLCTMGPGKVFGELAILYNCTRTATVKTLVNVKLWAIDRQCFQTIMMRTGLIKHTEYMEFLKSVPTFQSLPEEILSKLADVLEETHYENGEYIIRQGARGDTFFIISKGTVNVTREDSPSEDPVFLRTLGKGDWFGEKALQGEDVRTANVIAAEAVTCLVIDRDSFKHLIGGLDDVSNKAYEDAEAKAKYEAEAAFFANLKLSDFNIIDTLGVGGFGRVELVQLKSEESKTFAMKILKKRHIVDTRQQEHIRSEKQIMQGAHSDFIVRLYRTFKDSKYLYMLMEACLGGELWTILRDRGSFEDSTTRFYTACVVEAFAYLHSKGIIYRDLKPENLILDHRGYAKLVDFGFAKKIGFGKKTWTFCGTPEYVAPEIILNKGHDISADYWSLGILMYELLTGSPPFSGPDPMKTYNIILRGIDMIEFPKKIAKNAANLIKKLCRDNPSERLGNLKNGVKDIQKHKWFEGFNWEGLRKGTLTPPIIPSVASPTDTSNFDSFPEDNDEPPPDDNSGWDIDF

TEK (human) = TEK (human) (UniProt Q02763)
WEE1 (human) = WEE1 (human) (UniProt P30291)
CDC42BPB (human) = CDC42BPB (human) (UniProt Q9Y5S2)
Chain of CDC42BPB (human) (Q9Y5S2 whole entry, looked up): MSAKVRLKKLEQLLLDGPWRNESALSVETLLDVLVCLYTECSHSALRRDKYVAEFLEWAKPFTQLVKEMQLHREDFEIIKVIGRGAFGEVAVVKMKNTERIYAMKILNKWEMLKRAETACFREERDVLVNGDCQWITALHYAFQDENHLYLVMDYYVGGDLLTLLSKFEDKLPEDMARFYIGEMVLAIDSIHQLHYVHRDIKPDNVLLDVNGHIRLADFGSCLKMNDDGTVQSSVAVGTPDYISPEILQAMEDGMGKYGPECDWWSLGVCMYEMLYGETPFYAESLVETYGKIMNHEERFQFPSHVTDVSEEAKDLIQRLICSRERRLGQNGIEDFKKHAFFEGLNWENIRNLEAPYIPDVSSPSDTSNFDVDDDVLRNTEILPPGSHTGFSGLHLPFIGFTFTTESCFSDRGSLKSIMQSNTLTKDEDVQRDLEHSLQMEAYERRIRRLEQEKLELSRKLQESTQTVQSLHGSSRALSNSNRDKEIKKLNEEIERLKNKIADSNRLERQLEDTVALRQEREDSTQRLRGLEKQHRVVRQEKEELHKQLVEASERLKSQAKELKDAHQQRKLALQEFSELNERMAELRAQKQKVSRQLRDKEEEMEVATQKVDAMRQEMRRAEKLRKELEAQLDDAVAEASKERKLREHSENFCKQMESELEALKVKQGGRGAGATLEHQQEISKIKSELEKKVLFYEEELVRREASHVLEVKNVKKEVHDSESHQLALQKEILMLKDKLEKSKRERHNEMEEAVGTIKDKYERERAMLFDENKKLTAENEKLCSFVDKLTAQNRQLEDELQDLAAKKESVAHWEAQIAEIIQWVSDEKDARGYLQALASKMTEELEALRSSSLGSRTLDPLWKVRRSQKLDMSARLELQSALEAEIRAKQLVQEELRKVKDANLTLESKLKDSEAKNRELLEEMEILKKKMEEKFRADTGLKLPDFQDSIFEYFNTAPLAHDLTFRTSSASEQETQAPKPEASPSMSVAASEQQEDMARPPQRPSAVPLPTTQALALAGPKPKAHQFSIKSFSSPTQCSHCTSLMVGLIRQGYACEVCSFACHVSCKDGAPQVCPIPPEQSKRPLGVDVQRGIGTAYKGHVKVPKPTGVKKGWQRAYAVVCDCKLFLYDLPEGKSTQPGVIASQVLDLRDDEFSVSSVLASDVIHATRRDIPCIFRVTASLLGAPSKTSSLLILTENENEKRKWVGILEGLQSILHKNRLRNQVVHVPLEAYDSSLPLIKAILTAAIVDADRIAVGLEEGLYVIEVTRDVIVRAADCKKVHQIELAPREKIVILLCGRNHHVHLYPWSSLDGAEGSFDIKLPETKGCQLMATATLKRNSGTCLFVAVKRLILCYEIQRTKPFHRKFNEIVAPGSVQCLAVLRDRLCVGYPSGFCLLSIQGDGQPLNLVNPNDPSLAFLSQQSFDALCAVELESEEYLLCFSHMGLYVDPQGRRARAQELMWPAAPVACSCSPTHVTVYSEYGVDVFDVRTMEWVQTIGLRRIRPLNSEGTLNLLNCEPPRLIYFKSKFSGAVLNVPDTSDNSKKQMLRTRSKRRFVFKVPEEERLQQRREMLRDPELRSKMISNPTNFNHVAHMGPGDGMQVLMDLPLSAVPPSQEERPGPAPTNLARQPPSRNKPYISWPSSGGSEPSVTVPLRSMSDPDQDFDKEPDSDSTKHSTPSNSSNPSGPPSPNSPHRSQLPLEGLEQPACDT

MAPK3 (human) = MAPK3 (human) (UniProt P27361)
CAMK2A (human) = CAMK2A (human) (UniProt Q9UQM7)
AKT1 (human) = AKT1 (human) (UniProt P31749)
Chain of AKT1 (human) (P31749 whole entry, looked up): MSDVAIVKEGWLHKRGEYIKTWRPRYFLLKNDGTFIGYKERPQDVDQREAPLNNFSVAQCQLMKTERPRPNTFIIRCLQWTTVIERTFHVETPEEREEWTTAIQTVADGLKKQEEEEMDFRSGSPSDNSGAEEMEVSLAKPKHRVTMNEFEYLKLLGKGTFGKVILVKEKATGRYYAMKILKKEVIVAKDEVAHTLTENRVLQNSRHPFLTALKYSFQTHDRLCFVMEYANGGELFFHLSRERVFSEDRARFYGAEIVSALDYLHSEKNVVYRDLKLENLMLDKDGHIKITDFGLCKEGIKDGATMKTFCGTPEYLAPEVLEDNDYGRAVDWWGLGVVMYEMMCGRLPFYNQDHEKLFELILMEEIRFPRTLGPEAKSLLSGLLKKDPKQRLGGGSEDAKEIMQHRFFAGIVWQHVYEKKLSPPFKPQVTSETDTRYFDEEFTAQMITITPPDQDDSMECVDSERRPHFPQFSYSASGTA

DAPK3 (human) = DAPK3 (human) (UniProt O43293)
MARK3 (human) = MARK3 (human) (UniProt P27448)
TNK2 (human) = TNK2 (human) (UniProt Q07912)
MST4 (human) = MST4 (human) (UniProt Q9P289)
CSNK2A1 (human) = CSNK2A1 (human) (UniProt P68400)
CAMK2B (human) = CAMK2B (human) (UniProt Q13554)
MAPK12 (human) = MAPK12 (human) (UniProt P53778)
ACVR1B (human) = ACVR1B (human) (UniProt P36896)
RPS6KA2 KD1 KD2 (human) = RPS6KA2 KD1 KD2 (human) (UniProt Q15349)
KDR (human) = KDR (human) (UniProt P35968)
ROCK1 (human) = ROCK1 (human) (UniProt Q13464)
AXL (human) = AXL (human) (UniProt P30530)

Chain of CAMK1G (human) (Q96NX5 whole entry, looked up): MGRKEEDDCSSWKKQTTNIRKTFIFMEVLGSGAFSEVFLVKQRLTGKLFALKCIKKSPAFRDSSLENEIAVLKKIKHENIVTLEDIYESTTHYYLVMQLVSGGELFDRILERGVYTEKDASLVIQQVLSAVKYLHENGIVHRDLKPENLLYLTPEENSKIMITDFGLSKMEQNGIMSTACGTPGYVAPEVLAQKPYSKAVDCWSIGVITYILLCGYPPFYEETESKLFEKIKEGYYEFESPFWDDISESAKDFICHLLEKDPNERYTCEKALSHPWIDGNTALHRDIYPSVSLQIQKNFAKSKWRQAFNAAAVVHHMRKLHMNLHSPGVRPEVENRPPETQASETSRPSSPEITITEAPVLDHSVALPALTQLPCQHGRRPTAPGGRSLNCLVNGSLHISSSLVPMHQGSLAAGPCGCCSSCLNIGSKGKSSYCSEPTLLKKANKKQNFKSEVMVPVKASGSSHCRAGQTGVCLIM

**Q.** Which residual activity (SRPK1 (human)) does the source give for `COc1ccc2c(c1)c(C1=C(c3c[nH]c4ccccc34)C(=O)NC1=O)cn2CCCN(C)C` here?
**A.** 116%

**Q.** What about the residual activity (LTK (human)) of the same compound?
**A.** 81.9%

**Q.** And the residual activity (PAK7 (human))?
**A.** 67.6%

**Q.** And the residual activity (CAMK1G (human))?
**A.** 95%

**Q.** And the residual activity (MAP2K2 (human))?
**A.** 103%

**Q.** And the residual activity (NTRK1 (human))?
**A.** 83.1%

**Q.** What about the residual activity (MAPK8 (human)) of the same compound?
**A.** 80%

**Q.** And the residual activity (TSSK1B (human))?
**A.** 80.3%

**Q.** What about the residual activity (GSK3A (human)) of the same compound?
**A.** 14%

**Q.** What about the residual activity (STK33 (human)) of the same compound?
**A.** 56.2%

**Q.** And the residual activity (MAPKAPK3 (human))?
**A.** 92.3%

**Q.** And the residual activity (JAK3 JH1 JH2 (human))?
**A.** 138%

**Q.** And the residual activity [1]?
**A.** 126%

**Q.** And the residual activity (NEK4 (human))?
**A.** 90.7%

**Q.** What about the residual activity (SLK (human)) of the same compound?
**A.** 69.4%

**Q.** What about the residual activity (GSK3B (human)) of the same compound?
**A.** 32%

**Q.** And the residual activity (NUAK2 (human))?
**A.** 81%

**Q.** And the residual activity (PTK2 (human))?
**A.** 88.2%

**Q.** And the residual activity (PRKACA (human))?
**A.** 77.9%

**Q.** What about the residual activity (PRKCB2 (human)) of the same compound?
**A.** 14.2%

**Q.** And the residual activity (NTRK3 (human))?
**A.** 54.9%

**Q.** And the residual activity (PLK3 (human))?
**A.** 93%

**Q.** What about the residual activity (CAMK4 (human)) of the same compound?
**A.** 90.3%

**Q.** And the residual activity (PRKG1 (human))?
**A.** 79.4% and 99.5%

**Q.** And the residual activity (TEK (human))?
**A.** 102%

**Q.** And the residual activity (WEE1 (human))?
**A.** 85.1%

**Q.** And the residual activity (CDC42BPB (human))?
**A.** 89.4%

**Q.** What about the residual activity (MAPK3 (human)) of the same compound?
**A.** 93%

**Q.** What about the residual activity (CAMK2A (human)) of the same compound?
**A.** 102%

**Q.** What about the residual activity (AKT1 (human)) of the same compound?
**A.** 99%

**Q.** What about the residual activity (DAPK3 (human)) of the same compound?
**A.** 75.5%

**Q.** What about the residual activity (MARK3 (human)) of the same compound?
**A.** 92.2%

**Q.** And the residual activity (TNK2 (human))?
**A.** 77.9%

**Q.** What about the residual activity (MST4 (human)) of the same compound?
**A.** 40.4%

**Q.** What about the residual activity (CSNK2A1 (human)) of the same compound?
**A.** 95.9%

**Q.** What about the residual activity (CAMK2B (human)) of the same compound?
**A.** 89.9%

**Q.** What about the residual activity (MAPK12 (human)) of the same compound?
**A.** 84.8%

**Q.** What about the residual activity (ACVR1B (human)) of the same compound?
**A.** 111%

**Q.** And the residual activity (RPS6KA2 KD1 KD2 (human))?
**A.** 5.46%

**Q.** And the residual activity (KDR (human))?
**A.** 40.7%

**Q.** What about the residual activity (ROCK1 (human)) of the same compound?
**A.** 93.5%

**Q.** And the residual activity (AXL (human))?
**A.** 98.7%

**Q.** What does the source list for `CS(=O)(=O)CCNCc1ccc(-c2ccc3ncnc(Nc4ccc(OCc5cccc(F)c5)c(Cl)c4)c3c2)o1`?
**A.** residual activity (SRPK1 (human)): 100%; residual activity (LTK (human)): 100%; residual activity (PAK7 (human)): 98.5%; residual activity (CAMK1G (human)): 102%; residual activity (MAP2K2 (human)): 106%; residual activity (NTRK1 (human)): 99.2%; residual activity (MAPK8 (human)): 91.9%; residual activity (TSSK1B (human)): 79%; residual activity (GSK3A (human)): 105%; residual activity (STK33 (human)): 94.7%; residual activity (MAPKAPK3 (human)): 103%; residual activity (JAK3 JH1 JH2 (human)): 96.2%; residual activity [1]: 95.5%; residual activity (NEK4 (human)): 98.1%; residual activity (SLK (human)): 85.1%; residual activity (GSK3B (human)): 103%; residual activity (NUAK2 (human)): 95.1%; residual activity (PTK2 (human)): 104%; residual activity (PRKACA (human)): 96%; residual activity (PRKCB2 (human)): 99.8%; residual activity (NTRK3 (human)): 103%; residual activity (PLK3 (human)): 105%; residual activity (CAMK4 (human)): 107%; residual activity (PRKG1 (human)): 95.4% and 99.7%; residual activity (TEK (human)): 93.2%; residual activity (WEE1 (human)): 97.5%; residual activity (CDC42BPB (human)): 95.7%; residual activity (MAPK3 (human)): 94.8%; residual activity (CAMK2A (human)): 98.6%; residual activity (AKT1 (human)): 95.6%; residual activity (DAPK3 (human)): 97.4%; residual activity (MARK3 (human)): 95.9%; residual activity (TNK2 (human)): 97.5%; residual activity (MST4 (human)): 110%; residual activity (CSNK2A1 (human)): 121%; residual activity (CAMK2B (human)): 93.8%; residual activity (MAPK12 (human)): 95%; residual activity (ACVR1B (human)): 98.7%; residual activity (RPS6KA2 KD1 KD2 (human)): 84%; residual activity (KDR (human)): 96.6%; residual activity (ROCK1 (human)): 108%; residual activity (AXL (human)): 96.2%

Reference: the kinase profiling compilation of Christmann-Franck et al. (2016)
